Molecular target: T1, CRAC channel (Homo sapiens, UniProt Q96D31)
T1 construct: host or cells: HEK293
Assay: HEK Calcium Influx Assay (FLIPR)
Type: cell-based
Details: 10 μM; endogenous SOC in HEK293 cells, thapsigargin store depletion, Ca2+ signal 9.5-10 min post-administration; read-out: % inhib.[@ 10 μM] FLIPR
Procedure: The effect of compounds of the invention on intracellular [Ca^2+] was tested in the HEK293 cell line (ECACC).
HEK293 cells were cultured in DMEM/F12/Glutamax (Gibco) containing 10% FCS (Gibco), and maintained at 37° C., 5% CO2. Cell were split twice a week [3*10^6 (Mon-Thu) and 1*10^6 (Thu-Mon) cells/50 ml medium in T-175 ZK culture flasks, respectively]. Twenty four hours pre-experiment, cells were seeded on 96 well plates (Poly-D-Lysine 96well Black/Clear Plate, BD Biocoat REF 356640) at a density of 40,000 cells/well in DMEM/F12 (Gibco) containing 10% FCS (Gibco), and maintained at 37° C., 5% CO2.
Prior to store-depletion, cell culture medium was removed and cells were loaded with the a Calcium-sensitive fluorescent dye comprised within the Calcium-4-assay kit (Molecular Devices) in nominally Ca^2+-free HBS buffer (140 mM NaCl, 4 mM KCl, 0.2 mM MgCl2, 11 mM D-glucose, and 10 mM HEPES, pH 7.4) according to manufacturer's instruction for 60 min at 37° C., 5% CO2.
Passive depletion of intracellular Ca^2+-stores was then triggered by employing the SERCA inhibitor thapsigargin (2 μM final) for 10 min in the dark (RT). To prevent immediate Ca^2+-entry via the activated Store-operated channels (SOCs), cells were maintained in Ca^2+-free HBS buffer comprising 100 μM EGTA during store-depletion.
Intracellular changes in [Ca^2+] were subsequently monitored with the FLIPR device (Molecular Devices). In brief, baseline imaging post-store depletion was allowed for 1 min before adjusting the extracellular buffer to 3 mM CaCl2. Increases in intracellular [Ca^2+] due to pre-activated SOC channels were monitored for 15 min until intracellular Ca^2+ levels had declined into a steady-state. Finally, compounds were administered and Ca^2+ signals were recorded for additional 10 min.
Inhibition of endogenous SOC in HEK293 cells was quantified employing the average Ca^2+ signal measured from 9.5-10 min post-administration. Zero percent inhibition (MAX) was defined as the Ca^2+ signal recorded from wells to which DMSO-only had been added instead of compound. Hundred percent inhibition (MIN) was defined as the signal obtained from wells in which cells haven't been treated with TG prior to Ca^2+ addition and to which DMSO-only had been added instead of compound. For routine IC50 determinations of compounds, 8 concentrations of a serial dilution (1:3.16) were tested, starting off from 10 μM. Reliable IC50's could consequently be determined only, if they were at least sub 2.5-3 μM.

T1 sequence (Q96D31 whole entry): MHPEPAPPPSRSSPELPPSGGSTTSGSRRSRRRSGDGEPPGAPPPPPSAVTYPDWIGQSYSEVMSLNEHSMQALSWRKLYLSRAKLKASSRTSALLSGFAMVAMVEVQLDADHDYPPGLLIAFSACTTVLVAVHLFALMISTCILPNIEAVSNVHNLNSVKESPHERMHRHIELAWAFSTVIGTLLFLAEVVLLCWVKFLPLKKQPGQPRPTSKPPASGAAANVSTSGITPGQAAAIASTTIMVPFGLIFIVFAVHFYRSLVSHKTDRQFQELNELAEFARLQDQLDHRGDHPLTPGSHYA

inhibition at 10 µM | SMILES
50 to 70% | COc1cc(F)c(NC(=O)c2cc(-c3c(F)cccc3C(F)(F)F)n(C)n2)c(F)c1 [Example 58, N-(2,6-Difluoro-4-methoxy-phenyl)-5-[2-fluoro-6-(trifluoromethyl)-phenyl]-1-methyl-1H-pyrazole-3-carboxylic acid amide]
50 to 70% | Cn1nc(C(=O)Nc2c(F)cccc2F)cc1-c1cc(C(F)(F)F)ccc1C#N [Example 38, 5-[2-Cyano-5-(trifluoromethyl)-phenyl]-N-(2,6-difluoro-phenyl)-1-methyl-1H-pyrazole-3-carboxylic acid amide]
> 70% | Cn1nc(C(=O)Nc2ccccc2C(F)(F)F)cc1-c1c(F)cccc1C(F)(F)F [Example 60, 5-[2-Fluoro-6-(trifluoromethyl)-phenyl]-1-methyl-N-[2-(trifluoromethyl)-phenyl]-1H-pyrazole-3-carboxylic acid amide]
50 to 70% | Cn1nc(C(=O)Nc2c(F)cccc2F)cc1-c1cc(F)ccc1F [Example 5, 5-(2,5-Difluoro-phenyl)-N-(2,6-difluoro-phenyl)-1-methyl-1H-pyrazole-3-carboxylic acid amide]
> 70% | Cc1cccc(F)c1NC(=O)c1cc(-c2c(F)cccc2C(F)(F)F)n(C)n1 [Example 59, N-(2-Fluoro-6-methyl-phenyl)-5-[2-fluoro-6-(trifluoromethyl)-phenyl]-1-methyl-1H-pyrazole-3-carboxylic acid amide]
> 70% | Cn1nc(C(=O)Nc2ccncc2F)cc1-c1c(F)cccc1C(F)(F)F [Example 62, N-(3-Fluoro-pyridin-4-yl)-5-[2-fluoro-6-(trifluoromethyl)-phenyl]-1-methyl-1H-pyrazole-3-carboxylic acid amide]
50 to 70% | Cn1nc(C(=O)Nc2ccccc2C#N)cc1-c1c(F)cccc1C(F)(F)F [Example 56, N-(2-Cyano-phenyl)-5-[2-fluoro-6-(trifluoromethyl)-phenyl]-1-methyl-1H-pyrazole-3-carboxylic acid amide]
50 to 70% | Cn1nc(C(=O)Nc2ccc(F)cc2F)cc1-c1c(F)cccc1C(F)(F)F [Example 55, N-(2,4-Difluoro-phenyl)-5-[2-fluoro-6-(trifluoromethyl)-phenyl]-1-methyl-1H-pyrazole-3-carboxylic acid amide]
50 to 70% | CCn1nc(C(=O)Nc2c(F)cccc2F)cc1-c1cc(OC)ccc1OC [Example 37, N-(2,6-Difluoro-phenyl)-5-(2,5-dimethoxyphenyl)-1-ethyl-1H-pyrazole-3-carboxylic acid amide]
50 to 70% | Cc1ccc(C(F)(F)F)cc1-c1cc(C(=O)Nc2ccncc2F)nn1C [Example 29, N-(3-Fluoro-pyridin-4-yl)-1-methyl-5-[2-methyl-5-(trifluoromethyl)-phenyl]-1H-pyrazole-3-carboxylic acid amide]
50 to 70% | Cn1nc(C(=O)Nc2c(F)cccc2F)cc1-c1c(F)cccc1F [Example 50, N,5-Bis(2,6-difluoro-phenyl)-1-methyl-1H-pyrazole-3-carboxylic acid amide]
> 70% | Cn1nc(C(=O)Nc2c(F)cccc2F)cc1-c1cc(C(F)(F)F)ccc1F [Example 6, N-(2,6-Difluoro-phenyl)-5-[2-fluoro-5-(trifluoromethyl)-phenyl]-1-methyl-1H-pyrazole-3-carboxylic acid amide]
> 70% | Cn1nc(C(=O)Nc2ccccc2F)cc1-c1c(F)cccc1C(F)(F)F [Example 61, N-(2-Fluorophenyl)-5-[2-fluoro-6-(trifluoromethyl)-phenyl]-1-methyl-1H-pyrazole-3-carboxylic acid amide]
50 to 70% | Cc1cccc(Cl)c1NC(=O)c1cc(-c2c(F)cccc2F)n(C)n1 [Example 52, N-(2-Chloro-6-methyl-phenyl)-5-(2,6-difluoro-phenyl)-1-methyl-1H-pyrazole-3-carboxylic acid amide]

The next lines start with the compound.

SMILES | inhibition at 10 µM
Cn1nc(C(=O)Nc2ccccc2OC(F)(F)F)cc1-c1c(F)cccc1C(F)(F)F [Example 54, 5-[2-Fluoro-6-(trifluoromethyl)-phenyl]-1-methyl-N-[2-(trifluoromethyloxy)-phenyl]-1H-pyrazole-3-carboxylic acid amide] | 50 to 70%
COc1ccc(OC)c(-c2cc(C(=O)Nc3ccncc3C(F)(F)F)nn2C)c1 [Example 14, 5-(2,5-Dimethoxyphenyl)-1-methyl-N-[3-(trifluoromethyl)-pyridin-4-yl]-1H-pyrazole-3-carboxylic acid amide] | 50 to 70%
COc1ccc(OC)c(-c2cc(C(=O)Nc3ccccc3F)nn2C)c1 [Example 33, 5-(2,5-Dimethoxyphenyl)-N-(2-fluorophenyl)-1-methyl-1H-pyrazole-3-carboxylic acid amide] | > 70%
Cc1ccncc1-c1cc(C(=O)Nc2ccccc2C(F)(F)F)nn1C [Example 64, 1-Methyl-5-(4-methyl-pyridin-3-yl)-N-[2-(trifluoromethyl)-phenyl]-1H-pyrazole-3-carboxylic acid amide] | > 70%
COc1ccc(OC)c(-c2cc(C(=O)Nc3ccncc3F)nn2C)c1 [Example 19, 5-(2,5-Dimethoxyphenyl)-N-(3-fluoro-pyridin-4-yl)-1-methyl-1H-pyrazole-3-carboxylic acid amide] | > 70%
COc1ccc(OC)c(-c2cc(C(=O)Nc3c(F)cccc3F)n[nH]2)c1 [Example 41, N-(2,6-Difluoro-phenyl)-5-(2,5-dimethoxyphenyl)-1H-pyrazole-3-carboxylic acid amide] | > 70%
COc1ccc(-c2cc(C(=O)Nc3ccncc3F)nn2C)c(C)c1 [Example 24, N-(3-Fluoro-pyridin-4-yl)-5-(4-methoxy-2-methyl-phenyl)-1-methyl-1H-pyrazole-3-carboxylic acid amide] | > 70%
Cc1cnccc1NC(=O)c1cc(-c2cc(Cl)ccc2C)n(C)n1 [Example 28, 5-(5-Chloro-2-methyl-phenyl)-1-methyl-N-(3-methyl-pyridin-4-yl)-1H-pyrazole-3-carboxylic acid amide] | 50 to 70%
Cc1ccc(Cl)cc1-c1cc(C(=O)Nc2ccncc2F)nn1C [Example 23, 5-(5-Chloro-2-methyl-phenyl)-N-(3-fluoro-pyridin-4-yl)-1-methyl-1H-pyrazole-3-carboxylic acid amide] | 50 to 70%
COc1ccc(OC)c(-c2c(N)c(C(=O)Nc3ccncc3F)nn2C)c1 [Example 48, 4-Amino-5-(2,5-dimethoxyphenyl)-N-(3-fluoro-pyridin-4-yl)-1-methyl-1H-pyrazole-3-carboxylic acid amide] | > 70%
COc1ccc(OC)c(-c2cc(C(=O)Nc3ccc(S(C)(=O)=O)cc3F)nn2C)c1 [Example 13, 5-(2,5-Dimethoxyphenyl)-N-(2-fluoro-4-methylsulfonyl-phenyl)-1-methyl-1H-pyrazole-3-carboxylic acid amide] | 50 to 70%
Cc1cncc(F)c1NC(=O)c1cc(-c2c(F)cccc2F)n(C)n1 [Example 53, 5-(2,6-Difluoro-phenyl)-N-(3-fluoro-5-methyl-pyridin-4-yl)-1-methyl-1H-pyrazole-3-carboxylic acid amide] | 50 to 70%
Cn1nc(C(=O)Nc2ccncc2F)cc1-c1ccc(OC(F)(F)F)cc1Cl [Example 11, 5-[2-Chloro-4-(trifluoromethyloxy)-phenyl]-N-(3-fluoro-pyridin-4-yl)-1-methyl-1H-pyrazole-3-carboxylic acid amide] | 50 to 70%
COc1ccc(Cl)cc1-c1cc(C(=O)Nc2ccncc2F)nn1C [Example 22, 5-(5-Chloro-2-methoxy-phenyl)-N-(3-fluoro-pyridin-4-yl)-1-methyl-1H-pyrazole-3-carboxylic acid amide] | 50 to 70%
Cc1ccncc1-c1cc(C(=O)Nc2c(C)cncc2F)nn1C [Example 65, N-(3-Fluoro-5-methyl-pyridin-4-yl)-1-methyl-5-(4-methyl-pyridin-3-yl)-1H-pyrazole-3-carboxylic acid amide] | > 70%

Same assay, conditions: HEK293, read-out: % inhib.[@ 10 μM] FLIPR

SMILES | inhibition at 10 µM
Cn1nc(C(=O)Nc2ccc(Cl)cc2Cl)cc1-c1c(F)cccc1C(F)(F)F [Example 57, N-(2,4-Dichlorophenyl)-5-[2-fluoro-6-(trifluoromethyl)-phenyl]-1-methyl-1H-pyrazole-3-carboxylic acid amide] | 50 to 70%

From patent publication US9078899B2, “Pyrazolyl-based carboxamides II” (Grünenthal GmbH, priority 2013, dated 2015)
